Results from patent US11173150B2, “Method for diagnosing, preventing, and treating neurological diseases” (United States Government As Represented By The Department …, priority 2010, dated 2021).
Converted amounts (≈) assume the structure as drawn.

Key:
[1] = oral administration; cited from earlier work
[2] = Index case: 12 week therapeutic trial of oral vancomycin; type: in vivo, human; conditions: 125 mg QID oral, 12 weeks; person
Procedure: […] Diarrhea began after three 10 day courses of broad spectrum antimicrobials prescribed over a six week period for “chronic otitis media.” There was no blood or pus in the stool nor associated constitutional symptoms. There was profound behavioral and developmental deterioration, along with emergence of severe autistic features.
A 12 week therapeutic trial of oral vancomycin (125 mg QID) was begun with expanded observations by a pediatric neuropsychologist pre- and post-treatment. At baseline, the child was not on a special diet nor was […] taking any vitamin supplements. Three days after initiation of the vancomycin therapy, a hyperactivity pattern emerged which lasted for four days. […] became affectionate and relatively calm. […] promptly achieved toilet training and increased vocabulary. Follow-up behavioral observations after eight weeks of therapy noted an increase in on-task performance, compliance with parental requests, awareness of environmental surroundings, and persistence when engaging in positive activities. A significant reduction in repetitive and self-stimulatory behaviors was also noted. The child's educational therapies remained unchanged for both six months before and during the vancomycin trial. Shortly after vancomycin discontinuation, behavioral deterioration was observed. Though still improved over baseline, […] eventually lost most of the initial gains.

Desulfovibrio = assay: Antimicrobial susceptibility testing, CLSI serial two-fold plate dilution; type: cell-based; conditions: for MIC: Desulfovibrio
[3] = Open-label trial of oral vancomycin in children with regressive onset autism; type: in vivo, human
From the text: To explore whether our index case's improvement represented a true therapeutic effect, institutional human investigation committee approval was obtained for an open-label trial in a narrowly defined subgroup of autistic children. Eleven children (10 males, 1 female; age range: 43-84 months) were enrolled. Inclusion criteria for the study were derived from our central hypothesis and index case characteristics. They include 1) Meets diagnostic criteria for Autistic Disorder (DSM IV 299.00); 2) Other genetic and medical diagnoses have been adequately evaluated and ruled out; 3) Definable, rapid onset after 12 months of age; 4) Antecedent antimicrobial use (<2 months of autism symptom onset); 5) Persistent loose stool history, with diarrhea onset before autism symptoms; 6) Symptoms for <4 years; 7) Child is 2-8 years of age; 8) No evidence of any significant medical problem that might complicate treatment such as renal, cardiac or pulmonary disease, severe enterocolitis (visible blood or pus in the stool), or chronic infection (e.g., tuberculosis); and 9) Clinically static for 3 months (no new neuroleptic, seizure, or other medications), with no elective changes during the study, and 10) No antimicrobial use for at least 2 months prior to entry into the study. All children had diarrhea and regressive onset of autistic features (occurring at a mean of 17.7±3.4 months) as previously defined in the literature.
The Developmental Profile II provided descriptive developmental levels to contrast with developmental age. […] The Childhood Autism Rating Scale (CARS) was also administered. The CARS is a 15-item behavioral rating scale developed to identify children with autism, and to distinguish them from developmentally handicapped children without the autism syndrome. Based upon CARS diagnostic categories, six children met the criteria for severe autism, two for moderate autism, and three for mild autism. The vancomycin dose was 500 mg/day given orally as a liquid (500 mg/6 ml), divided into 2 ml TID for eight weeks. This was followed by four weeks of oral treatment with a probiotic mixture of Lactobacillus acidophilus, L. bulgaricus, and Bifidobacterium bifidum (40×10^9 cfu/ml).
Two measures of potential improvement were examined: I) Children were videotaped for 30 minutes at baseline and once during therapy in a playroom environment. At each session, the child was directed to play with a series of puzzles, books, blocks, and dolls by the mother and then by the evaluator. At the end of the trial, a clinical child psychologist (who was provided with a brief explanation of our working hypothesis) compared coded, paired videotapes of 10 of the 11 children studied (video was not available for one child). The psychologist viewed each pair of tapes and scored them. […] 2) Behavior and communication analog rating scales were completed by the study physician at baseline, during therapy, and at follow-up in a manner similar to previously validated methods for other disease states. Results are presented as median scores to account for potential non-linear score increment.

Compound: CN[C@H](CC(C)C)C(=O)N[C@H]1C(=O)N[C@@H](CC(N)=O)C(=O)N[C@H]2C(=O)N[C@H]3C(=O)N[C@H](C(=O)N[C@H](C(=O)O)c4cc(O)cc(O)c4-c4cc3ccc4O)[C@H](O)c3ccc(c(Cl)c3)Oc3cc2cc(c3O[C@@H]2O[C@H](CO)[C@@H](O)[C@H](O)[C@H]2O[C@H]2C[C@](C)(N)[C@H](O)[C@H](C)O2)Oc2ccc(cc2Cl)[C@H]1O [Vancomycin]
- Fecal levels after oral administration [1]: 2-5,000 mcg/gm
- Clinical outcome of index case [2]: rapid and dramatic clinical improvement
- MIC (Desulfovibrio; Desulfovibrio strain 4019): > 512 µg/mL
- MIC (Desulfovibrio; Desulfovibrio strain 8236): 256 µg/mL (≈ 177 µM)
- MIC (Desulfovibrio; Desulfovibrio strain 8381): > 512 µg/mL
- MIC (Desulfovibrio; Desulfovibrio strain 8907): > 512 µg/mL
- MIC (Desulfovibrio; Desulfovibrio strain 8933): > 512 µg/mL
- MIC (Desulfovibrio; Desulfovibrio strain 8951): > 512 µg/mL
- MIC (Desulfovibrio; Desulfovibrio strain 9070): > 512 µg/mL
- MIC (Desulfovibrio; Desulfovibrio strain 9120): > 512 µg/mL
- MIC (Desulfovibrio; Desulfovibrio strain 9706): > 512 µg/mL
- MIC (Desulfovibrio; Desulfovibrio strain 9976): 512 µg/mL (≈ 353 µM)
- MIC (Desulfovibrio; Desulfovibrio strain 10831): 256 µg/mL (≈ 177 µM)
- MIC (Desulfovibrio; Desulfovibrio strain 11081): 256 µg/mL (≈ 177 µM)
- MIC (Desulfovibrio; Desulfovibrio strain 11094): > 512 µg/mL
- MIC (Desulfovibrio; Desulfovibrio strain 11232): > 512 µg/mL
- MIC (Desulfovibrio; Desulfovibrio strain 11346): > 512 µg/mL
- MIC (Desulfovibrio; Desulfovibrio strain 11378): 256 µg/mL (≈ 177 µM)
- MIC (Desulfovibrio; Desulfovibrio strain 11437): > 512 µg/mL
- MIC (Desulfovibrio; Desulfovibrio strain 11568): > 512 µg/mL
- MIC (Desulfovibrio; Desulfovibrio strain 11623): > 512 µg/mL
- MIC (Desulfovibrio; Desulfovibrio strain 11717): > 512 µg/mL
- MIC (Desulfovibrio; Desulfovibrio strain 11789): > 512 µg/mL
- MIC (Desulfovibrio; Desulfovibrio strain 11830): > 512 µg/mL
- MIC (Desulfovibrio; Desulfovibrio strain 11949): > 512 µg/mL
- MIC (Desulfovibrio; Desulfovibrio strain 12379): 256 µg/mL (≈ 177 µM)
- MIC (Desulfovibrio; Desulfovibrio strain 13966): > 512 µg/mL
- MIC (Desulfovibrio; Desulfovibrio type strain 7757^T): > 512 µg/mL
- MIC (Desulfovibrio; Desulfovibrio type strain 29098^T): 1 µg/mL (≈ 0.69 µM)
- MIC against Desulfovibrio, summary in words (Desulfovibrio; discussion of Table 14): not very active on a weight basis
- Blinded assessment of coded, paired videotapes: children with improvement during therapy ([3]; 500 mg/day orally for eight weeks, no change in one, possible deterioration in one): eight of ten
- Time to substantial behavioral deterioration after discontinuance ([3]; reported by most parents, telephone follow-up): two
- Analog ratings at long-term follow-up ([3]; two to eight months after discontinuance, in all but one child): returned towards baseline
- Analog rating scale, communication ([3]; unblinded, group as a whole, Wilcoxon Signed Ranks Z=2.9 p=0.003): improvement
- Analog rating scale, behavior ([3]; unblinded, group as a whole, Wilcoxon Signed Ranks Z=-2.9, p=0.003): improvement
- Children with brief (1-4 days) period of hyperactivity ([3]; within three days of initiating antibiotic treatment, eleven children enrolled): six
